Laboratory results as given in PubChem BioAssay (NCI).
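Test compounds were applied to cells in 96-well plates for 48 hours at 5 doses. TGI: concentration producing complete growth inhibition.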

Legend:
Test in all cases: NCI tumour cell line growth inhibition, 48 h
[1] = test system: NCI-H460 lung
[2] = test system: M19-MEL melanoma
[3] = test system: NCI-H226 lung
[4] = test system: HCT-15 colon
[5] = test system: IGROV1 ovarian
[6] = test system: OVCAR-8 ovarian
[7] = test system: EKVX NSCLC
[8] = test system: M14 melanoma
[9] = test system: KM20L2 colon
[10] = test system: CCRF-CEM leukemia
[11] = test system: HL-60(TB) leukemia
[12] = test system: MALME-3M melanoma
[13] = test system: OVCAR-4 ovarian
[14] = test system: SN12C renal
[15] = test system: A549 NSCLC
[16] = test system: MOLT-4 leukemia
[17] = test system: SF-268 CNS
[18] = test system: K-562 leukemia
[19] = test system: ACHN renal
[20] = test system: OVCAR-3 ovarian
[21] = test system: UO-31 renal
[22] = test system: HOP-18 NSCLC
[23] = test system: NCI-H522 lung
[24] = test system: DMS 273 small cell lung
[25] = test system: UACC-257 melanoma
[26] = test system: RPMI-8226 leukemia
[27] = test system: A498 renal
[28] = test system: SF-295 CNS
[29] = test system: 786-0 renal
[30] = test system: TK-10 renal
[31] = test system: HCT-116 colon
[32] = test system: SK-MEL-28 melanoma
[33] = test system: HOP-92 NSCLC
[34] = test system: SK-MEL-2 melanoma
[35] = test system: SK-OV-3 ovarian
[36] = test system: HCC-2998 colon
[37] = test system: SNB-19 CNS
[38] = test system: OVCAR-5 ovarian
[39] = test system: U251 CNS
[40] = test system: DLD-1 colon
[41] = test system: KM12 colon
[42] = test system: HT29 colon
[43] = test system: COLO 205 colon
[44] = test system: SNB-78 CNS
[45] = test system: CAKI-1 renal
[46] = test system: LXFL 529 NSCLC
[47] = test system: NCI-H23 lung
[48] = test system: HOP-62 NSCLC
[49] = test system: SF-539 CNS
[50] = test system: RXF-631 renal
[51] = test system: XF 498 CNS
[52] = test system: LOX IMVI melanoma
[53] = test system: SW-620 colon
[54] = test system: UACC-62 melanoma

Measured: TGI

CCOC(=O)NC(=O)c1cn(C2CCCCC2)c(=O)[nH]c1=O
> 100 µM: all assays above
